Measurements published in paper PMC9877316, “Identification of a novel P2X7 antagonist using structure-based virtual screening” (Frontiers in Pharmacology, 2023).
Entries after “also recorded” stand apart in the source; their conditions may differ. Like-named read-outs stand apart in the source and are kept apart here.

Key:
human P2X7 = target: T1, human P2X7 (Homo sapiens, UniProt Q99572); assay: ATP-induced YoPro-1 dye uptake assay, human P2X7; format: cell-based; details: for reduction in ATP-induced dye uptake at human P2X7: 30 µM compound, 300 μM ATP
T1 construct: expressed in transfected cells; host or cells: 1321N1 astrocytoma cells (compounds 1-17); HEK-293 cells stably expressing human P2X7 (gift of E. Adinolfi)
T1 sequence (Q99572 1-595): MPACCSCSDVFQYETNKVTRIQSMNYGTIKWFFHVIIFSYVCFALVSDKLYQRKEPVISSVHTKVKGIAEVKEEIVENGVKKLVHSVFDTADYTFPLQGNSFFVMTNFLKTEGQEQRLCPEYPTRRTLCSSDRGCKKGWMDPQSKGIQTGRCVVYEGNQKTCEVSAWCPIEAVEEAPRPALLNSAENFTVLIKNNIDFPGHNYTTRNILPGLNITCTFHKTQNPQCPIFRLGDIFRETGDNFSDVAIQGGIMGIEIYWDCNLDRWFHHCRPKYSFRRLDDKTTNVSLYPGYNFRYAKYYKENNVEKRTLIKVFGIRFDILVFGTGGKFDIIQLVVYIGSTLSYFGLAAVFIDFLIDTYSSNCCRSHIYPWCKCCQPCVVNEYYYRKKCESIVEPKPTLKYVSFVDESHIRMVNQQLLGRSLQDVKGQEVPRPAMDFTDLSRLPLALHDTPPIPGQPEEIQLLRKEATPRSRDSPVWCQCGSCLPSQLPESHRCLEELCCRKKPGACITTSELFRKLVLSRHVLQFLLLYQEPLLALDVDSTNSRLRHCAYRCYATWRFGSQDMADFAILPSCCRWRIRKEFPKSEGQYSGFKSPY
Method: (§1) 1321N1 astrocytoma cells and HEK-293 cells were cultured (at 37°C, 5% CO2) in Dulbecco’s modified Eagle’s medium (DMEM/F-12 with Glutamax) supplemented with 10% foetal bovine serum (FBS) and 200 unit/ml of penicillin and streptomycin antibiotics (Fisher Scientific). For stable cell line generation, cells were transfected using FuGene HD Transfection Reagent (Promega) according to the manufacturer’s protocol with plasmids encoding either human P2X4 with a C-terminal (His)10 tag ([Young et al., 2008]), human P2X7 with a C-terminal EYMPME tag (kindly provided by R.A. North) or rat P2X7 C-terminally tagged with a GFP-(His)8 tag, generated by PCR amplification of the coding sequence for rat P2X7 from a pcDNA-based expression vector ([Young et al., 2007]), adding XhoI and EcoRI sites at the 5′- and 3′- ends respectively, followed by restriction digestion and ligation into a zebrafish P2X4-GFP expression vector based on pEGFP-C1 (kindly provided by Eric Gouaux; [Kawate and Gouaux, 2006]) to replace the zebrafish P2X4 coding region with rP2X7. Transfected clones were grown in DMEM/F-12 with Glutamax medium supplemented with G-418 (Geneticin®, Fisher Scientific), 600 μg/ml and 150 μg/ml during selection and maintenance respectively. […] HEK-293 cells stably expressing human P2X7 ([Adinolfi et al., 2010]) were a kind gift from Elena Adinolfi.
(§2) Cells were plated as for the calcium influx assay (Section 2.4). Culture medium was replaced with low divalent cation containing extracellular solution (ECS-LD; 147 mM NaCl, 10 mM HEPES, 13 mM Glucose, .2 mM CaCl2, 2 mM KCl. pH = 7.4 in MilliQ water) and 5 μM Yopro-1. […] The baseline was measured with a BMG Clariostar instrument for 5–10 cycles, followed by addition of ATP (or BzATP) and recording for at least 30 further cycles (approx. 1 min per data point). The collected responses were normalized to the first data-point recorded after ATP addition. The initial gradient of the dye uptake curve was used to calculate the response to ATP.
The antagonist activity of the 17 compounds (applied at 10 µM) was assayed initially on 1321N1 astrocytoma cells stably expressing human P2X4 receptors by measuring the ATP-induced (applied at 1.2 µM) increase in Fluo-4 fluorescence due to calcium influx via P2X4, using 2 µM BX430 as a positive control (Figure 1A). […] The ATP-induced rate of uptake of YoPro-1 dye was measured upon application of at 300 µM ATP, using .1 µM A740003 as a positive control (Figure 1B).
A small library of 16 commercially available compounds was selected according to the presence of the same scaffold as GP-25, (70% similarity, Tanimoto index) and/or presence of at least one functional group we hypothesized could contribute to GP-25 activity (e.g. carboxylic acid, halogen substituent to the aromatic ring, ester, etc.) (Compounds 18–33; Table 1). […] Although the number of compounds tested was limited by their availability via a commercial source, the numerous ‘hits’ allowed for a basic structure-relationship (SAR) analysis.

rat P2X7 = target: T2, rat P2X7 (Rattus norvegicus, UniProt Q64663); assay: ATP/BzATP-induced YoPro-1 dye uptake assay, rat P2X7; format: cell-based; details: for inhibition at 30 µM: approx. % inhibition at 30 μM compound, 300 µM ATP, rat P2X7-GFP, read-out: % Inhibition at rP2X7; for antagonist activity at rat P2X7: 30 µM compound, 300 μM ATP
T2 construct: expressed in transfected cells; host or cells: HEK-293 cells stably expressing rat P2X7-GFP (patch clamp)
T2 sequence (Q64663 1-595): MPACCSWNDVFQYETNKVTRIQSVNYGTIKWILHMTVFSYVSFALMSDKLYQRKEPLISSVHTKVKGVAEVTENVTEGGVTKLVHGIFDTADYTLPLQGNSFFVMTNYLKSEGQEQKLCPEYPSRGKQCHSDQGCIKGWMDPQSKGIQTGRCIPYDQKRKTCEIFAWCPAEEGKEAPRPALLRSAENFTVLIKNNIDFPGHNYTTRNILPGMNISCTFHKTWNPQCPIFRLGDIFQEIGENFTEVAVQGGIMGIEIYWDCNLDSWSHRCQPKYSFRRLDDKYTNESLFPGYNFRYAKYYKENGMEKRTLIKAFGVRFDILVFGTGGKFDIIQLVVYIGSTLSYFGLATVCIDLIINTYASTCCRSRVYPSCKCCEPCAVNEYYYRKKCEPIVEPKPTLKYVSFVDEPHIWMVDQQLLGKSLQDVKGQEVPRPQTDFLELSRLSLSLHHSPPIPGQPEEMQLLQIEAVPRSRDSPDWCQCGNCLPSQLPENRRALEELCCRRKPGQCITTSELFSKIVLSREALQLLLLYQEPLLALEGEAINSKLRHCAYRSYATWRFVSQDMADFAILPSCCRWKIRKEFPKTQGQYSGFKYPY
Method: as §1, §2
In order to confirm GP-25 as a competitive (orthosteric) antagonist, BzATP concentration-response curves (ranging between 300 μM and .03 µM) were constructed for rat P2X7-GFP in the YoPro-1 uptake assay in the presence of increasing concentrations of GP-25 (Figure 3A).

Solubility observations = format: physicochemical
[1] = P2X7, approx. % inhibition at 30 μM compound, 300 µM ATP, YoPro-1 uptake, 1321N1 (1-17) or HEK (18-33) cells, read-out: % Inhibition at hP2X7
[2] = P2X7, 30 µM compound, 300 µM ATP, YoPro-1, read-out: inhibition of response at human P2X7
[3] = agonist concentration-response, YoPro-1 uptake

Structure (SMILES) | inhibition at 30 µM (human P2X7; [1]) [%] | inhibition at 30 µM (rat P2X7; YoPro-1 uptake) [%] | also measured
NC(=O)CN1C(=O)C(O)(CC(=O)c2cccc(N)c2)c2ccccc21 (stereo not drawn) [Compound 12] | 12 | – | –
CC1(C)CC(=O)C2=C(C1)NC1=C(C(=O)c3ccccc31)C2c1cccnc1 (stereo not drawn) [Compound 28] | 32 | < 0 | reduction in ATP-induced dye uptake at human P2X7 (human P2X7): statistically significant reduction
COC(=O)C1=C(C)NC2=C(C(=O)c3ccccc32)C1c1cc(OC)c(OC)c(OC)c1 (stereo not drawn) [Compound 31] | 29 | < 10 | –
O=C1NC(=O)C(CCc2ccncc2)(c2ccccc2)C(=O)N1 [Compound 8] | < 0 | – | –
O=C(O)CCCC(=O)Nc1ccc(CN2CCOCC2)cc1 [Compound 15] | 11 | – | –
COC(=O)C1=C(C)NC2=C(C(=O)c3ccccc32)C1c1ccc(-c2ccccc2[N+](=O)[O-])o1 (stereo not drawn) [Compound 23] | 30 | < 0 | reduction in ATP-induced dye uptake at human P2X7 (human P2X7): statistically significant reduction
Cc1ccc(N2C(S)=C(C#N)C(=O)NC2c2cccs2)cc1 (stereo not drawn) [Compound 5] | < 0 | – | –
CCOC(=O)CN1C(=O)S/C(=C/c2ccc(-c3ccc(C(=O)O)c(Cl)c3)o2)C1=O [Compound 10] | – | – | % Inhibition at hP2X7 (human P2X7; approx. % inhibition at 30 μM compound, 300 µM ATP, YoPro-1 uptake, 1321N1 (1-17) or HEK (18-33) cells): — (for compound displaying increased responses vs. control)
CN1C2=C(C(=O)CCC2)C(c2cc(Cl)ccc2OCC(=O)O)C2=C1CCCC2=O [Compound 25] | 20 | < 0 | inhibition at 30 µM (human P2X7; [2]): ≤ 25%
O=C(Nc1cc(S(=O)(=O)O)cc2cc(S(=O)(=O)O)cc(O)c12)c1ccccc1 [Compound 1] | 41 | – | –
CCOC(=O)C1=C(C)N(C)C2=C(C(=O)c3ccccc32)C1c1cc(OC)c(OC)c(OC)c1 (stereo not drawn) [Compound 32] | 55 | 19 | antagonist activity at rat P2X7 (rat P2X7): no activity; reduction in ATP-induced dye uptake at human P2X7 (human P2X7): statistically significant reduction
CCSc1nnc2c(n1)OC(c1cc(Br)ccc1OCC(=O)O)Nc1ccccc1-2 (stereo not drawn) [Compound 29] | 20 | < 0 | –
COc1ccc(C2C3=C(CCCC3=O)N(CC(=O)O)C3=C2C(=O)CCC3)cc1 [Compound 14] | < 0 | – | inhibition at 30 µM (human P2X7; [2]): ≤ 25%
CC1(C)CC(=O)C2=C(C1)N(CC(=O)O)C1=C(C(=O)CC(C)(C)C1)C2c1ccc(OCc2ccccc2)cc1 [Compound 13] | 29 | – | inhibition at 30 µM (human P2X7; [2]): ≤ 25%
CC1(C)CC(=O)C2=C(C1)NC1=C(C(=O)c3ccccc31)C2c1cccc(O)c1 (stereo not drawn) [Compound 30] | 27 | < 0 | –
O=C(O)COc1ccc(Cl)cc1C1C2=C(CCCC2=O)NC2=C1C(=O)CCC2 [Compound 27] | 16 | < 0 | inhibition at 30 µM (human P2X7; [2]): ≤ 25%

Structure (SMILES) | inhibition at 30 µM (human P2X7; [1]) [%] | inhibition at 30 µM (rat P2X7; YoPro-1 uptake) [%] | also measured
Nc1nc(SCC(=O)NCCO)nc2sc3c(c12)CCCC3 [Compound 3] | < 0 | – | –
C=CCN1C(=O)N/C(=C/c2ccc(-c3ccc(C(=O)O)cc3C)o2)C1=O [Compound 11] | 25 | – | –
CCOC(=O)C1=C(C)NC2=C(C(=O)c3ccccc32)C1c1cc(Br)c(OCc2ccc(F)cc2)c(OC)c1 (stereo not drawn) [Compound 24] | 12 | 16 | –
CC(=O)C1=C(C)NC(=S)NC1c1cc(Br)ccc1OCC(=O)O (stereo not drawn) [Compound 33] | 18 | 16 | –
CCOC(=O)C1=C(C)NC2=C(C(=O)c3ccccc32)C1c1cc(Br)ccc1OCC (stereo not drawn) [Compound 19] | < 0 | 13 | reduction in ATP-induced dye uptake at human P2X7 (human P2X7): completely abolished the activity
CC(=O)c1ccc(N/N=C(\C#N)C(=O)NCc2ccccc2)cc1 [Compound 6] | < 10 | – | –
COC(=O)C1=C(C)NC2=C(C(=O)c3ccccc32)C1c1ccc(-c2cc([N+](=O)[O-])ccc2Cl)o1 (stereo not drawn) [Compound 22] | 69 | < 0 | antagonist activity at rat P2X7 (rat P2X7): no activity; solubility (Solubility observations; listed as GP-50): less soluble than GP-47 or GP-25; also recorded: low solubility; reduction in ATP-induced dye uptake at human P2X7 (human P2X7): statistically significant reduction
Cc1ccc(C(=O)C2=C(O)C(=O)N(CC3CCCO3)C2c2cccc(Oc3ccccc3)c2)o1 (stereo not drawn) [Compound 4] | < 10 | – | –
O=C(NNC(=S)CC(=O)c1cccs1)c1ccc(O)cc1 [Compound 17] | < 10 | – | –
O=C(O)COc1ccc(Br)cc1C1C2=C(CCCC2=O)NC2=C1C(=O)CCC2 [Compound 26] | 22 | < 0 | inhibition at 30 µM (human P2X7; [2]): ≤ 25%
O=C(O)CSc1nc(SCC(=O)O)c2c3c(sc2n1)CCCC3 [Compound 16] | < 10 | – | –
O=C(O)c1ccccc1NS(=O)(=O)c1ccc2c(c1)C(=O)c1ccccc1C2=O [Compound 2] | 38 | – | –
CC1(C)CC(=O)C2=C(C1)NC1=C(C(=O)CC(C)(C)C1)C2c1ccccc1OCC(=O)O [Compound 18] | < 0 | < 0 | inhibition at 30 µM (human P2X7; [2]): ≤ 25%
Nc1ncnc2c1ncn2[C@@H]1O[C@H](COP(=O)(O)OP(=O)(O)OP(=O)(O)O)[C@@H](O)[C@H]1O [ATP, reference compound] | – | – | EC50 (rat P2X7; [3]): 138 µM; EC50 (human P2X7; [3]): 184 µM
CCSc1nnc(NC(=O)CSc2nnc3c4ccccc4n(C)c3n2)s1 [Compound 7] | – | – | solubility (Solubility observations): very low solubility
